Measurements published in US20120077744A1, “STEROID-SPARING METHODS OF TREATING BRAIN EDEMA” (Neutron Limited, priority 2007, published 2012).

Tests used:
[1] = system: patients with primary or secondary brain tumors (peritumoral brain edema); details: interim report (SNO 2006); 20 subjects on corticorelin acetate for at least 4 weeks; cited from earlier work
[2] = system: patients with peritumoral brain edema; details: cited from earlier work
[3] = Open-label extension study: serial serum cortisol levels; type: in vivo, human; details: for AM serum cortisol, one patient: reference range 5-25 μg/dL
Experimental: Serial serum cortisol levels were obtained for 16 patients, and were normal or low in 15 (94%) of the 16 patients. In one patient, AM serum cortisol (reference range 5-25 μg/dL) was low on a dexamethasone dose of 2.5 mg/d, moderately elevated (39 μg/dL) after discontinuation of dexamethasone for 4 weeks, then normalized (25 μg/dL) after 16 weeks off dexamethasone, and again low (0.4 μg/dL) after 8 weeks on dexamethasone at 7.0-8.0 mg/d.

[4] = system: patients with primary or secondary brain tumors (peritumoral brain edema); details: interim report (SNO 2006); 8 of 18 subjects with such conditions at baseline; cited from earlier work
[5] = system: patients with primary or secondary brain tumors (peritumoral brain edema); assay: Open-label extension study: dexamethasone dose reduction (net cumulative change in dexamethasone dose, NCD); type: in vivo, human
Source text: Eligible patients with primary or secondary brain tumors, who had previously participated in one of two randomized, double-blind Phase III trials, were then enrolled in an open-label extension study. […] One of the goals of the open label study was to study the maximum dexamethasone reduction in each patient.

[6] = system: vascular leakage of plasma constituents; details: systemic administration; response to injury or inflammatory mediators; cited from earlier work
[7] = system: intracerebral W256 mammary carcinomas; details: rats, even at the study's lowest dose of corticorelin acetate; cited from earlier work
[8] = system: patients with primary or secondary brain tumors (peritumoral brain edema); assay: Open-label extension study: adverse events and safety
Experimental: Eligible patients with primary or secondary brain tumors, who had previously participated in one of two randomized, double-blind Phase III trials, were then enrolled in an open-label extension study. As shown in FIG. 1 patients that participated in the Phase III studies that received XERECEPT (corticorelin acetate) 1 mg twice daily and dexamethasone or placebo and dexamethasone or dexamethasone alone were enrolled in the open label extension study. One of the goals of the open label study was to study the maximum dexamethasone reduction in each patient.
In the open-labeled extension study, patients returned at 4-week intervals and completed assessments that included adverse events, dexamethasone dose, and steroid side-effects. […] Net cumulative change in dexamethasone dose (NCD) for each patient was determined by the change in dexamethasone dose from baseline for each visit. The net sum of these changes accounted for duration, direction, and amount of dexamethasone dose change.

RG2 glioma tumor cells = details: rats, cited from earlier work
[9] = system: patients with primary or secondary brain tumors (peritumoral brain edema); assay: Open-label extension study: improvement of steroid-related conditions; type: in vivo, human
Experimental: In these 8 patients, the mean NCD was −9.8 mg/d; the median NCD was −6.5 mg/d (0 to −36 mg/d).
Mean baseline dexamethasone dose was similar in patients with reduced NCD (6.2 mg) and those with increased NCD (6.3 mg). Improvement or resolution of baseline steroid-related conditions correlated with NCD. Such improvement was observed only in patients whose NCD was reduced or those who took no dexamethasone from baseline to date extraction, as shown in FIG. 3. FIG. 3 is flow chart depicting the net cumulative change in dexamethasone dose and steroid-related adverse events. In contrast, worsening or new onset of steroid-related AEs was confined to patients whose NCD was increased, with one exception—a patient who initiated dexamethasone ≦2 weeks prior to baseline. Improvement was most frequently observed in Cushingoid appearance (5 AEs) myopathy (4 AEs), and insomnia (2 AEs) followed by weight gain, bloating, pedal edema, polyuria, skin striae, and Herpes zoster rash (1 AE each). Median time to initial improvement of steroid-related conditions was 12 weeks (1 to 36 weeks).

CC[C@H](C)[C@H](NC(=O)[C@@H](NC(=O)[C@H](CCC(=O)O)NC(=O)[C@H](CCSC)NC(=O)[C@H](CC(C)C)NC(=O)[C@H](CCCCN)NC(=O)[C@H](CCCNC(=N)N)NC(=O)[C@H](CC(N)=O)NC(=O)[C@H](CO)NC(=O)[C@H](Cc1c[nH]cn1)NC(=O)[C@H](C)NC(=O)[C@H](CCC(N)=O)NC(=O)[C@H](CCC(N)=O)NC(=O)[C@H](C)NC(=O)[C@H](CC(C)C)NC(=O)[C@H](CCC(N)=O)NC(=O)[C@H](CCC(=O)O)NC(=O)[C@H](C)NC(=O)[C@H](CCCNC(=N)N)NC(=O)[C@H](C)NC(=O)[C@H](CCSC)NC(=O)[C@H](CCC(=O)O)NC(=O)[C@H](CC(C)C)NC(=O)[C@@H](NC(=O)[C@H](CCC(=O)O)NC(=O)[C@H](CCCNC(=N)N)NC(=O)[C@H](CC(C)C)NC(=O)[C@H](CC(C)C)NC(=O)[C@H](Cc1c[nH]cn1)NC(=O)[C@H](Cc1ccccc1)NC(=O)[C@@H](NC(=O)[C@H](CC(C)C)NC(=O)[C@H](CC(=O)O)NC(=O)[C@H](CC(C)C)NC(=O)[C@H](CO)NC(=O)[C@@H](NC(=O)[C@@H]1CCCN1C(=O)[C@@H]1CCCN1C(=O)[C@H](CCC(=O)O)NC(=O)[C@H](CCC(=O)O)NC(=O)[C@@H](N)CO)[C@@H](C)CC)[C@@H](C)O)C(C)C)[C@@H](C)CC)C(N)=O [corticorelin acetate]
Subjects who reduced their dexamethasone dosage during the study [1]: 11 subjects
Subjects who took no concomitant dexamethasone [1]: 2 subjects
Side-effects of intravenous administration ([2]; human, in vivo, iv): some side-effects including headache, hypotension, facial flushing, diarrhea, shortness of breath, nausea and lethargy
Tolerability in humans ([2]; human, in vivo, iv): well-tolerated
Neurological symptoms or physical findings ([2]; intravenous bolus and continuous infusions): showed improvement in neurological symptoms or physical findings
Patients with normal or low serial serum cortisol levels ([3]; 15 of the 16 patients): 94%
AM serum cortisol, one patient ([3]; after 8 weeks on dexamethasone at 7.0-8.0 mg/d, low): 0.4 µg/dL
AM serum cortisol, one patient ([3]; after 16 weeks off dexamethasone, normalized): 25 µg/dL
AM serum cortisol, one patient ([3]; after discontinuation of dexamethasone for 4 weeks, moderately elevated): 39 µg/dL
Induction of hypercortisolism ([3]; dosing up to 48 weeks): did not induce hypercortisolism
Subjects with improvement or resolution of steroid related conditions [4]: 45%
Typically refractory patients who successfully reduced dexamethasone ([5]; 5 of the 8 patients 55 years of age): 62.5%
Typically refractory patients who successfully reduced dexamethasone ([5]; 7 of the 10 patients with recurrent brain tumor): 70%
Patients with increased NCD ([5]; 7 of the 20 patients): 35%
Mean NCD ([5]; 7 patients whose NCD was increased): +10.7 mg/d
Median NCD ([5]; 7 patients whose NCD was increased, range +2.0 mg/d to +46.0 mg/d): +5.0 mg/d
Median maximum percent change from baseline in dexamethasone dose ([5]; 7 patients with increased NCD, range +50 to +200%): +100%
Typically refractory patients who successfully reduced dexamethasone ([5]; 11 of the 16 patients in whom prior dexamethasone reductions had been unsuccessful): 69%
Patients with reduced NCD ([5]; 11 of the 20 patients): 55%
Mean NCD ([5]; 11 patients whose NCD was reduced): -10.7 mg/day
Median NCD ([5]; 11 patients whose NCD was reduced, range −0.5 to −36 mg/d): -3.0 mg/day
Median maximum percent change from baseline in dexamethasone dose ([5]; 11 patients with reduced NCD, range −11 to −100%): −87%
Patients discontinuing dexamethasone altogether ([5]; of the 11 patients with reduced NCD): 5 patients
Exposure to dexamethasone and steroid-related side-effects ([5]; patients with peritumoral brain edema): associated with reduced exposure to dexamethasone and improvement in steroid-related side-effects
Patients who took 0.0 mg/d dexamethasone from baseline to ≧24 weeks ([5]; two of 20 patients): 10%
Effect on vascular leakage and tissue swelling [6]: inhibit vascular leakage of plasma constituents and associated tissue swelling
Effect on the anti-edematous effect of dexamethasone [7]: enhance substantially the anti-edematous effect of dexamethasone
Deaths: relation to study drug ([8]; four patients died between 1-40 days after the last dose): all because of conditions not related to study drug
All adverse events, Mild ([8]; in vivo): 3 (15.0) n (%)
All adverse events, Moderate ([8]; in vivo): 3 (15.0) n (%)
All adverse events, Severe ([8]; in vivo): 1 (5.0) n (%)
All adverse events, all severities (last column, no head) ([8]; in vivo): 7 (35.0) n (%)
Eyelid edema, Mild ([8]; in vivo): 1 (5.0) n (%)
Eyelid edema, all severities (last column, no head) ([8]; in vivo): 1 (5.0) n (%)
Flushing, Mild ([8]; in vivo): 3 (15.0) n (%)
Flushing, Moderate ([8]; in vivo): 2 (10.0) n (%)
Flushing, all severities (last column, no head) ([8]; in vivo): 5 (25.0) n (%)
Headache, Severe ([8]; in vivo): 1 (5.0) n (%)
Headache, all severities (last column, no head) ([8]; in vivo): 1 (5.0) n (%)
Injection site erythema, Mild ([8]; in vivo): 4 (20.0) n (%)
Injection site erythema, Moderate ([8]; in vivo): 1 (5.0) n (%)
Injection site erythema, all severities (last column, no head) ([8]; in vivo): 5 (25.0) n (%)
Injection site reaction, Mild ([8]; in vivo): 2 (10.0) n (%)
Injection site reaction, Moderate ([8]; in vivo): 1 (5.0) n (%)
Injection site reaction, all severities (last column, no head) ([8]; in vivo): 3 (15.0) n (%)
Nausea, Moderate ([8]; in vivo): 1 (5.0) n (%)
Nausea, all severities (last column, no head) ([8]; in vivo): 1 (5.0) n (%)
Number of SAEs ([8]; in vivo): 12 SAEs
Photophobia, Moderate ([8]; in vivo): 1 (5.0) n (%)
Photophobia, all severities (last column, no head) ([8]; in vivo): 1 (5.0) n (%)
SAEs attributed to corticorelin acetate ([8]; in vivo): none of which were attributed to corticorelin acetate
Safety and tolerability of long-term treatment ([8]; in vivo): safe and well-tolerated
Survival versus dexamethasone alone (RG2 glioma tumor cells; administered chronically): significantly prolonged survival
Effect on tumoral and peritumoral edema (RG2 glioma tumor cells; intravenous infusion): reduce tumoral and peritumoral edema
Patients with improvement or resolution of steroid-related conditions ([9]; 8 of the 18 patients with such conditions at baseline, 17 conditions): 45%
Mean NCD ([9]; 8 patients with improvement or resolution of steroid-related conditions): -9.8 mg/day
Median NCD ([9]; 8 patients with improvement or resolution of steroid-related conditions, range 0 to −36 mg/d): -6.5 mg/day
Median time to initial improvement of steroid-related conditions ([9]; range 1 to 36 weeks): 12 weeks
Improvement observed in Cushingoid appearance ([9]; steroid-related conditions): 5 AEs
Improvement observed in insomnia ([9]; steroid-related conditions): 2 AEs
Improvement observed in myopathy ([9]; steroid-related conditions): 4 AEs
Improvement observed in weight gain, bloating, pedal edema, polyuria, skin striae, and Herpes zoster rash ([9]; steroid-related conditions): 1 AE each
